From ChEMBL document CHEMBL1155915, “Anticonvulsant activity of some xanthone derivatives” (Bioorg Med Chem, 2008)
Calls of active or inactive are those of the source. The calls are words filed in the database; no cut-off is given here.

Experiments:
[1] = test system: Rattus norvegicus; experiment: Neurotoxicity in rat at 30 mg/kg, po after 0.25 hrs by rotarod test; type: toxicity, organism-based; parameters: dose 30 mg/kg, route oral; conditions: in vivo
[2] = test system: Rattus norvegicus; experiment: Neurotoxicity in rat at 30 mg/kg, po after 0.5 hrs by rotarod test; type: toxicity, organism-based; parameters: dose 30 mg/kg, route oral; conditions: in vivo
[3] = test system: Rattus norvegicus; experiment: Anticonvulsant activity against maximal electroshock-induced seizures in rat at 30 mg/kg, po after 0.25 hrs; type: functional, organism-based; parameters: dose 30 mg/kg
[4] = test system: Mus musculus; experiment: Neurotoxicity in mouse at 300 mg/kg, ip after 4 hrs by rotarod test; type: toxicity, organism-based; parameters: dose 300 mg/kg, route intraperitoneal; conditions: in vivo
[5] = test system: Mus musculus; experiment: Anticonvulsant activity against scMet-induced seizures in mouse at 100 mg/kg, ip after 4 hrs; type: functional, organism-based; parameters: dose 100 mg/kg
[6] = test system: Mus musculus; experiment: Anticonvulsant activity against scMet-induced seizures in mouse at 30 mg/kg, ip after 0.5 hrs; type: functional, organism-based; parameters: dose 30 mg/kg
[7] = test system: Mus musculus; experiment: Anticonvulsant activity against maximal electroshock-induced seizures in mouse at 100 mg/kg, ip after 0.5 hrs; type: functional, organism-based; parameters: dose 100 mg/kg
[8] = test system: Mus musculus; experiment: Anticonvulsant activity against maximal electroshock-induced seizures in mouse at 300 mg/kg, ip after 0.5 hrs; type: functional, organism-based; parameters: dose 300 mg/kg
[9] = test system: Mus musculus; experiment: Anticonvulsant activity against scMet-induced seizures in mouse at 100 mg/kg, ip after 0.5 hrs; type: functional, organism-based; parameters: dose 100 mg/kg
[10] = test system: Rattus norvegicus; experiment: Neurotoxicity in rat at 30 mg/kg, po after 1 hr by rotarod test; type: toxicity, organism-based; parameters: dose 30 mg/kg, route oral; conditions: in vivo
[11] = test system: Mus musculus; experiment: Anticonvulsant activity against maximal electroshock-induced seizures in mouse at 300 mg/kg, ip after 4 hrs; type: functional, organism-based; parameters: dose 300 mg/kg
[12] = test system: Mus musculus; experiment: Neurotoxicity in mouse at 30 mg/kg, ip after 4 hrs by rotarod test; type: toxicity, organism-based; parameters: dose 30 mg/kg, route intraperitoneal; conditions: in vivo
[13] = test system: Rattus norvegicus; experiment: Neurotoxicity in rat at 30 mg/kg, po after 4 hrs by rotarod test; type: toxicity, organism-based; parameters: dose 30 mg/kg, route oral; conditions: in vivo
[14] = test system: Mus musculus; experiment: Neurotoxicity in mouse at 30 mg/kg, ip after 0.5 hrs by rotarod test; type: toxicity, organism-based; parameters: dose 30 mg/kg, route intraperitoneal; conditions: in vivo
[15] = test system: Mus musculus; experiment: Anticonvulsant activity against scMet-induced seizures in mouse at 300 mg/kg, ip after 0.5 hrs; type: functional, organism-based; parameters: dose 300 mg/kg
[16] = test system: Mus musculus; experiment: Anticonvulsant activity against maximal electroshock-induced seizures in mouse at 100 mg/kg, ip after 4 hrs; type: functional, organism-based; parameters: dose 100 mg/kg
[17] = test system: Rattus norvegicus; experiment: Anticonvulsant activity against maximal electroshock-induced seizures in rat at 30 mg/kg, po after 2 hrs; type: functional, organism-based; parameters: dose 30 mg/kg
[18] = test system: Mus musculus; experiment: Neurotoxicity in mouse at 300 mg/kg, ip after 0.5 hrs by rotarod test; type: toxicity, organism-based; parameters: dose 300 mg/kg, route intraperitoneal; conditions: in vivo
[19] = test system: Mus musculus; experiment: Anticonvulsant activity against scMet-induced seizures in mouse at 30 mg/kg, ip after 4 hrs; type: functional, organism-based; parameters: dose 30 mg/kg
[20] = test system: Mus musculus; experiment: Anticonvulsant activity against maximal electroshock-induced seizures in mouse at 30 mg/kg, ip after 0.5 hrs; type: functional, organism-based; parameters: dose 30 mg/kg
[21] = test system: Mus musculus; experiment: Anticonvulsant activity against scMet-induced seizures in mouse at 300 mg/kg, ip after 4 hrs; type: functional, organism-based; parameters: dose 300 mg/kg
[22] = test system: Rattus norvegicus; experiment: Anticonvulsant activity against maximal electroshock-induced seizures in rat at 30 mg/kg, po after 0.5 hrs; type: functional, organism-based; parameters: dose 30 mg/kg
[23] = test system: Mus musculus; experiment: Anticonvulsant activity against maximal electroshock-induced seizures in mouse at 30 mg/kg, ip after 4 hrs; type: functional, organism-based; parameters: dose 30 mg/kg
[24] = test system: Rattus norvegicus; experiment: Neurotoxicity in rat at 30 mg/kg, po after 2 hrs by rotarod test; type: toxicity, organism-based; parameters: dose 30 mg/kg, route oral; conditions: in vivo
[25] = Displacement of [3H]nitrendipine from voltage-dependent calcium channel in rat brain cortex by scintillation counting; type: tissue-based
[26] = species: Mus musculus; experiment: Protective index, ratio of TD50 for mouse by rotarod test to ED50 for mouse by scMET test; type: functional
[27] = test system: Mus musculus; experiment: Anticonvulsant activity against scMet-induced seizures in ip dosed mouse; type: functional
[28] = test system: Mus musculus; experiment: Anticonvulsant activity against maximal electroshock-induced seizures in ip dosed mouse; type: functional
[29] = test system: Mus musculus; experiment: Neurotoxicity in mouse at 100 mg/kg, ip after 4 hrs by rotarod test; type: toxicity, organism-based; parameters: dose 100 mg/kg, route intraperitoneal; conditions: in vivo
[30] = Displacement of [3H]flunitrazepam from benzodiazepine receptor in rat brain cortex by scintillation counting; type: tissue-based
[31] = Neurotoxicity in ip dosed mouse by rotarod test; type: toxicity, organism-based; conditions: in vivo
[32] = species: Mus musculus; experiment: Protective index, ratio of TD50 for mouse by rotarod test to ED50 for mouse by MES test; type: functional
[33] = test system: Mus musculus; experiment: Neurotoxicity in mouse at 100 mg/kg, ip after 0.5 hrs by rotarod test; type: toxicity, organism-based; parameters: dose 100 mg/kg, route intraperitoneal; conditions: in vivo
[34] = test system: Rattus norvegicus; experiment: Anticonvulsant activity against maximal electroshock-induced seizures in rat at 30 mg/kg, po after 1 hr; type: functional, organism-based; parameters: dose 30 mg/kg
[35] = test system: Rattus norvegicus; experiment: Anticonvulsant activity against maximal electroshock-induced seizures in rat at 30 mg/kg, po after 4 hrs; type: functional, organism-based; parameters: dose 30 mg/kg
[36] = test system: Mus musculus; experiment: Neurotoxicity in mouse at 10 mg/kg, ip after 0.5 hrs by rotarod test; type: toxicity, organism-based; parameters: dose 10 mg/kg, route intraperitoneal; conditions: in vivo
[37] = test system: Mus musculus; experiment: Neurotoxicity in mouse at 3 mg/kg, ip after 0.5 hrs by rotarod test; type: toxicity, organism-based; parameters: dose 3 mg/kg, route intraperitoneal; conditions: in vivo
[38] = test system: Mus musculus; experiment: Anticonvulsant activity against maximal electroshock-induced seizures in mouse at 10 mg/kg, ip after 0.5 hrs; type: functional, organism-based; parameters: dose 10 mg/kg
[39] = test system: Mus musculus; experiment: Anticonvulsant activity against maximal electroshock-induced seizures in mouse at 3 mg/kg, ip after 0.5 hrs; type: functional, organism-based; parameters: dose 3 mg/kg

Row | SMILES | Neurotoxicity [1] | Neurotoxicity [2] | Neurotoxicity [4] | Activity [5] | Activity [6] | Activity [8] | Activity [9] | Neurotoxicity [10] | Activity [11] | Neurotoxicity [12] | Neurotoxicity [13] | Activity [15] | Activity [16] | Activity [17] | Activity [19] | Activity [20] | Activity [21] | Activity [22] | Activity [23] | Neurotoxicity [24] | also measured
1 | CC[C@@H](CO)NCc1ccc2oc3cc(Cl)ccc3c(=O)c2c1 | Not Active | Not Active | Neurotoxic | inactive | inactive | Active | inactive | Not Active | Active | Not Active | Not Active | inactive | inactive | inactive | inactive | inactive | inactive | inactive | inactive | Not Active | Activity [3]: inactive; Activity [7]: Active; Neurotoxicity [14]: Not Active; Neurotoxicity [18]: Neurotoxic
2 | NC(=O)N1c2ccccc2C=Cc2ccccc21 [CARBAMAZEPINE] | – | – | – | – | – | – | – | – | – | – | – | – | – | – | – | – | – | – | – | – | EC50 [25]: 1.2 µM; PI [26]: <1; ED50 [27]: > 50 mg/kg
3 | C[C@@H](CO)NCc1ccc2oc3cc(Cl)ccc3c(=O)c2c1 | Not Active | Not Active | Not Active | inactive | inactive | Active | – | Not Active | Active | Not Active | Not Active | inactive | – | inactive | inactive | inactive | inactive | inactive | inactive | Not Active | ED50 [28]: 73 mg/kg; Neurotoxicity [29]: Not Active; EC50 [25]: 7.6 µM; EC50 [30]: 30 µM; TD50 [31]: < 500 mg/kg; PI [32]: <6.851; Neurotoxicity [33]: Not Active; Neurotoxicity [14]: Not Active; ED50 [27]: > 350 mg/kg; Activity [34]: inactive
4 | CCCC(CCC)C(=O)[O-].[Na+] [VALPROATE SODIUM] | – | – | – | – | – | – | – | – | – | – | – | – | – | – | – | – | – | – | – | – | TD50 [31]: 483 mg/kg; ED50 [27]: 290 mg/kg
5 | CN1C(=O)CN=C(c2ccccc2)c2cc(Cl)ccc21 [DIAZEPAM] | – | – | – | – | – | – | – | – | – | – | – | – | – | – | – | – | – | – | – | – | EC50 [30]: 0.7 µM
6 | CC(C)(CCO)NCc1ccc2oc3cc(Cl)ccc3c(=O)c2c1 | Not Active | Not Active | Not Active | inactive | inactive | Active | inactive | Not Active | inactive | Not Active | Not Active | inactive | inactive | inactive | inactive | inactive | inactive | inactive | inactive | Not Active | Activity [3]: inactive; Neurotoxicity [29]: Not Active; Activity [35]: inactive; Neurotoxicity [33]: Not Active; Activity [34]: inactive
7 | CCC(O)CNCc1ccc2oc3cc(Cl)ccc3c(=O)c2c1 (racemic) | Not Active | Not Active | Neurotoxic | inactive | inactive | Active | inactive | Not Active | Active | Not Active | Not Active | inactive | Active | – | inactive | Active | inactive | – | inactive | Not Active | Activity [7]: Active; Neurotoxicity [36]: Not Active; Neurotoxicity [18]: Neurotoxic; Neurotoxicity [37]: Not Active; Activity [38]: inactive; Activity [39]: inactive
